Measurements reported in ChEMBL document CHEMBL3576772, “Fibroblast Growth Factor Receptor 3 (FGF-R3): A Promising Therapeutic Target for the Treatment of Bladder Cancer” (2015).

Legend:
[1] = Inhibition of serum-induced proliferation of human TCC97-7 cells carrying FGFR3 Ser249Cys mutation at 10 uM after 3 days; format: functional; conditions: TCC97-7, 72 h
[2] = Inhibition of serum-induced proliferation of human TCC97-7 cells carrying FGFR3 Ser249Cys mutation at 1 uM after 3 days; format: functional; conditions: TCC97-7, 72 h
[3] = system: Fibroblast growth factor receptor 3 (Homo sapiens), P22607 [S249C]; assay: Antagonist activity against FGFR3 Ser249Cys mutant in human TCC97-7 cells cultured in serum-supplemented medium assessed as reduction in ATP content at 10 um after 3 days by cell titer-Glo luminescent cell viability assay; format: cell-based
[4] = system: Fibroblast growth factor receptor 3 (Homo sapiens), P22607 [S249C]; assay: Antagonist activity against FGFR3 Ser249Cys mutant in human TCC97-7 cells cultured in serum-supplemented medium assessed as reduction in ATP content at 1 um after 3 days by cell titer-Glo luminescent cell viability assay; format: cell-based

Chain of Fibroblast growth factor receptor 3 (Homo sapiens), P22607 [S249C] (P22607 whole entry S249C): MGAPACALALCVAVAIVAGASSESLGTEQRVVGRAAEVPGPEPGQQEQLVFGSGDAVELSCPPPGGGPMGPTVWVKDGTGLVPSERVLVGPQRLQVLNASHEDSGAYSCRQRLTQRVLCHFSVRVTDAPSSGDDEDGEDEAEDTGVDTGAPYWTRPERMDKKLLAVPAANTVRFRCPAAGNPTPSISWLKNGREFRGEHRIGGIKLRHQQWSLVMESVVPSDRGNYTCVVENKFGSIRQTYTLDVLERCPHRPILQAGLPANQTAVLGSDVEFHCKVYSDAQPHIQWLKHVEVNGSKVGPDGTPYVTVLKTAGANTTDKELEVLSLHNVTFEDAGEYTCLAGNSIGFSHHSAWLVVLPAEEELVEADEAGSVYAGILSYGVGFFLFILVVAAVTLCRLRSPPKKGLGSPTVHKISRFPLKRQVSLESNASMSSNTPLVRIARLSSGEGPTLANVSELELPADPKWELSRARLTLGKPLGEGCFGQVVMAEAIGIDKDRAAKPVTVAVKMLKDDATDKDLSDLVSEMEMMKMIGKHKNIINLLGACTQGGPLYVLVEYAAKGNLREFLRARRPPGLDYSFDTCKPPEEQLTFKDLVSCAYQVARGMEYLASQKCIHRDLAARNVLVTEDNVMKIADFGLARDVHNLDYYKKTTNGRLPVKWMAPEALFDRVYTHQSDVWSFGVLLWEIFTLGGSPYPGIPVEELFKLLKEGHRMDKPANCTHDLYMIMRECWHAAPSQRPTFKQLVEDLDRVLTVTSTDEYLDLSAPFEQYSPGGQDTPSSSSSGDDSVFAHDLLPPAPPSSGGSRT

Row | Structure (SMILES) | inhibition at 10 µM [1] | inhibition at 1 µM [2] | inhibition [3] | inhibition [4]
1 | O=c1[nH]c2ccc(-c3cc(C(F)(F)F)c4c(-c5ccccc5)n[nH]c4n3)cc2[nH]1 | 29% | -3% | 19% | –
2 | Cn1nc(-c2ccccc2)c2c(C(F)(F)F)cc(-c3ccc(C(=O)O)cc3)nc21 | 33% | 8% | 40% | 17%
3 | O=C(c1cccc(-c2cc(C(F)F)c3c(-c4ccccc4)n[nH]c3n2)c1)N1CCCC1 | 83.9% | 16.2% | 90.5% | 26.9%
4 | Cn1nc(-c2ccccc2)c2c(C(F)(F)F)cc(-c3cccc(C(N)=O)c3)nc21 | 91.6% | 8% | 41.1% | 10.9%
